Where two headings read alike, the source gives them in different places.
Columns and labels:
Gram-positive bacteria = tested on: Gram-positive bacteria; design: method as in PMID 36377761; conditions: against Gram-positive bacteria, cited from earlier work
[1] = tested on: human ileal apical-in enteroids; assay: Cytotoxicity by LDH leakage assay in apical-in enteroids; format: cell-based; conditions: 4 h, cutoff 25% vs negative control
Procedure: (§1) Cytotoxicity and effects on cell viability after exposure to glab, licoA, and glycy in apical-out and apical-in enteroids (6.25–500 μg mL^–1) and proliferating Caco-2 cells (3.13–100 μg mL^–1) were determined by LDH leakage (Section 2.6.1) and WST-1 assays (Section 2.6.2), respectively. For this, stock solutions of 50 mg mL^–1 of glab, licoA, and glycy in DMSO were used. […] An overview of the experimental conditions for the exposure experiments with glab, licoA, and glycy is shown in Table S2 (Supporting Information). In brief, apical-out and apical-in enteroids were grown for 7–10 days in OGM (∼200 enteroids per dome), after which the medium was changed to ODM (supplemented with 5 μM DAPT) to initiate enteroid differentiation. To generate apical-out enteroids, MG was removed from apical-in enteroids in OGM at day 7–10, as described in Section 2.3, and suspended in supplemented ODM. After 3 days in ODM, the effects on cytotoxicity and cell viability of glab, licoA, and glycy in apical-out and apical-in enteroids (passages between 3 and 17) were assessed after 4 and 24 h of incubation. For apical-out enteroids in a suspension, enteroids were pelleted by centrifugation (2 min, 200g, RT), after which the ODM was removed and 500 μL of the experimental agent was added. […] Caco-2 cells were grown for 48 h after seeding before experiments (passages 14–19) with proliferating cells and for 21 days after seeding (passages 14–33) with differentiated cells.[17] The medium (DMEM supplemented with FCS) was changed every 2 days. For exposure experiments, Caco-2 cells were incubated with glab, licoA, and glycy in DMEM without FCS, as FCS serves as an exogenous source of LDH.[22]
(§2) Cytotoxic effects of glab, licoA, and glycy were assessed by measuring leakage of intracellular lactate dehydrogenase (LDH) in the supernatant and analyzed using an LDH cytotoxicity detection kit (Roche Applied Science, Almere, The Netherlands), according to the manufacturer’s instructions. The LDH activity in the supernatant was expressed as the percentage of the maximum releasable LDH in enteroids or Caco-2 cells (enteroids or Caco-2 cells treated with 1% (v/v) Triton X-100) and calculated with eq 1. [drawing 1] 1 in which exp. value is the UV absorbance at 492 nm (Tecan Spark or Tecan Infinite 200 Pro, Tecan Group Ltd., Zürich, Switzerland), background control is the medium with corresponding concentration of glab, licoA, or glycy, and high control is the maximum releasable LDH in enteroids or Caco-2 cells. For enteroids, each well was used as its own positive control by taking the total releasable LDH of each well after incubation.

[2] = tested on: human apical-in ileal enteroids; assay: Biotransformation in apical-in ileal enteroids (RP-UHPLC-PDA-MSn); format: in vitro ADME
Procedure: (§3) Biotransformation of glab, licoA, and glycy in apical-out and apical-in enteroids was evaluated after 0, 4, and 24 h of incubation. For this, apical-out enteroids were stimulated with 50 μg mL^–1 (154 μM) glab, or with 100 μg mL^–1 licoA (296 μM), or 100 μg mL^–1 glycy (272 μM), and apical-in enteroids were stimulated with 50 μg mL^–1 glab (154 μM), 50 μg mL^–1 licoA (148 μM), or 50 μg mL^–1 glycy (136 μM). […] For apical-out enteroids, parent compounds and their transformation products were assessed on the enteroids’ apical (facing the medium) and basolateral side (inside the enteroids) and intracellularly. In apical-in enteroids, parent compounds and metabolites were assessed on the basolateral side (facing the medium). For the apical release, apical-out enteroids were pelleted (250g, 3 min, 4 °C), and the supernatant was used for LC-MS analysis, after which the enteroids were washed with PBS. Enteroids in a suspension in fresh PBS were broken up by vigorously pipetting up and down approximately for 20 times, after which enteroids were pelleted and the supernatant was used to determine basolateral release by using LC-MS. Enteroids were washed with PBS, and the enteroids’ cells in fresh PBS were disrupted on ice with a digital sonifier (Branson Ultrasonics Corporation, Danbury, CT, USA) with the following settings: a 5 s pulse, a 10 s pause, an amplitude of 55%, and 12 cycles. Enteroids were pelleted, and the supernatant was used as a measure for intracellular release and measured with LC-MS.
(§4) Samples were separated on a Thermo Vanquish UHPLC system (Thermo Scientific, San Jose, CA, USA) equipped with a pump, a degasser, an autosampler, and a PDA detector, as described elsewhere.[15] Eluents used were (A) LC-MS-grade MQ + 0.1% FA (v/v) and (B) LC-MS-grade ACN + 0.1% FA (v/v). The elution program was started by running isocratically at 1% B for 1.09 min followed by a 1.09–26.16 min linear gradient to 70% B, a 26.16–27.25 min linear gradient to 100% B, and 27.25–32.70 min isocratically at 100% B. The eluent was adjusted to start conditions in 1.09 min followed by equilibration of 5.45 min.
(§5) Mass spectrometric data were acquired using an LTQ Velos Pro linear ion trap mass spectrometer (Thermo Scientific), equipped with a heated ESI probe coupled in-line to the Vanquish UHPLC system, as described elsewhere.[15] Data were processed using Xcalibur 4.1 (Thermo Scientific).
(§6) Quantification of glab, licoA, glycy, and produced metabolites was based on UV absorbance at 280 nm (glab), 340–390 nm (licoA), and 320–370 nm (glycy). For this, a seven-point calibration (0.01–150 μg mL^–1) curve based on external standards of glab, licoA, and glycy (R^2 > 0.999) was used. UV peaks were integrated using the AVALON integration algorithm with the autocalc function (Xcalibur 4.1). Metabolites were quantified as glab, licoA, or glycy equivalents.

[3] = Cell viability by WST-1 assay in apical-out enteroids; format: cell-based, human; conditions: human, apical-out ileal enteroids; 500 μg mL^–1, 4 h exposure, negative control set at 100%; read-out: cell viability (WST-1)
Procedure: as §1
(§7) Effects on cell viability after stimulation by glab, licoA, and glycy were assessed by measuring cleavage of the tetrazolium salt WST-1 to formazan catalyzed by cellular mitochondrial dehydrogenases and analyzed using a WST-1 cell viability kit (PromoKine, Heidelberg, Germany), according to the manufacturer’s instructions. Cell viability was expressed as the percentage of the control cells (enteroids or Caco-2 cells grown in a medium) and was calculated with eq 2. [drawing 2] 2 in which exp. value is the UV absorbance at 450 nm (Tecan Spark or Tecan Infinite 200 Pro) and low control is the spontaneous cleavage of WST-1 to formazan by mitochondrial dehydrogenases in untreated enteroids or Caco-2 cells.

[4] = tested on: human ileal apical-out enteroids; assay: as above; format: cell-based; conditions: 4 h exposure, range 6.25 up to 500 μg mL^–1
Procedure: as §1, §7

Caco-2 cells = assay: Cytotoxicity by LDH leakage assay in Caco-2 cells; format: cell-based, human; conditions: proliferating and differentiated Caco-2 cells (differentiated: ref 17), cutoff 25%
Procedure: The human colon adenocarcinoma cell line (Caco-2) was obtained from the American Type Culture Collection (ATCC; Manassas, VA, USA). Caco-2 cells were cultured in DMEM, in a humidified atmosphere of 5% CO2 at 37 °C until 80–90% confluency was reached. Effects on the cytotoxicity and cell viability (Section 2.6) were assessed in proliferating and differentiated Caco-2 cells. The effects on differentiated Caco-2 cells were recently described in our publication.[17] Proliferating and differentiated Caco-2 cells were seeded into 96-well plates at a density of 15,000 cells per cm^2.
Cytotoxicity and effects on cell viability after exposure to glab, licoA, and glycy in apical-out and apical-in enteroids (6.25–500 μg mL^–1) and proliferating Caco-2 cells (3.13–100 μg mL^–1) were determined by LDH leakage (Section 2.6.1) and WST-1 assays (Section 2.6.2), respectively. For this, stock solutions of 50 mg mL^–1 of glab, licoA, and glycy in DMSO were used. […] After 3 days in ODM, the effects on cytotoxicity and cell viability of glab, licoA, and glycy in apical-out and apical-in enteroids (passages between 3 and 17) were assessed after 4 and 24 h of incubation. […]
as §2, with “[drawing 1]” left out, “For enteroids, each well was used as its own positive control by taking the total releasable LDH of each well after incubation.” left out

[5] = tested on: human ileal apical-out enteroids; assay: Cytotoxicity by LDH leakage assay in apical-out enteroids; format: cell-based
Procedure: as §1, §2

[6] = tested on: human apical-out ileal enteroids; assay: Biotransformation in apical-out ileal enteroids (RP-UHPLC-PDA-MSn); format: in vitro ADME; conditions: for glucuronide concentration released at the apical side: glycy 265 μM at t = 0 h
Procedure: as §3, §4, §5, §6

[7] = tested on: human CYP enzymes (i.e., CYP3A4); design: method as in PMID 17220245, PMID 28774812, PMID 12019199, PMID 26100226; conditions: cited from earlier work
[8] = tested on: human ileal apical-out enteroids; conditions: 12.5 μg mL^–1 (34–39 μM), 4 h exposure
Procedure: Effects on barrier integrity of apical-out enteroids after glab, licoA, and glycy exposure were evaluated with a dextran diffusion assay, adapted from Co et al.[14] […] Enteroids were allowed to settle by gravity (5 min) into a pellet, the FITC-dextran 4 kDa was aspirated, and enteroids were washed with DMEM/F12 (3 min, 250g, RT). Enteroids were suspended in fresh DMEM/F12, and they were imaged with an EVOS FL Auto 2 cell imaging system. Images were analyzed using ImageJ software (version 1.52).

[9] = Stability in the medium without enteroids; format: physicochemical; conditions: after 24 h of incubation
Procedure: as §6

Compound: C=CC(C)(C)c1cc(/C=C/C(=O)c2ccc(O)cc2)c(OC)cc1O [licochalcone A]
- minimum inhibitory concentration (MIC) (Gram-positive bacteria): 12.5 μg mL^–1
- minimum inhibitory concentration (MIC) (Gram-positive bacteria; equivalent of 12.5 μg mL^–1): 37 µM
- highest nontoxic concentration (LDH) [1]: around 300 μM
- % biotransformation to glucuronide compared to parent at t = 0 h ([2]; 24 h exposure, 50 μg mL^–1, basolateral side): comparably low
- biotransformation products formed ([2]; identified at the basolateral side): transformed to their glucuronides
- phase I metabolites ([2]; up to 24 h incubation): no phase I metabolites were identified
- viability at 4 h, 500 μg mL^–1 [3]: 77 ± 22%
- cell viability (WST-1), slight decrease, not statistically significant [4]: approximately 80%
- highest nontoxic concentration (LDH) (Caco-2 cells): around 75 μM
- cytotoxicity (LDH) ([5]; 500 μg mL^–1, 4 h exposure, % of maximum releasable LDH): −6 ± 2%
- effects on cytotoxicity up to the highest concentrations ([5]; 4 h exposure, up to 500 μg mL^–1, p > 0.05): No significant effects on cytotoxicity
- % biotransformation to glucuronide compared to parent at t = 0 h ([6]; 24 h exposure, 100 μg mL^–1 (licoA, glycy), apical side): comparably low
- sulfation (LC-MS analysis) ([6]; human ileal apical-out and apical-in enteroids): did not reveal sulfation
- biotransformation products formed ([6]; released on the apical side): glucuronide metabolites
- phase I biotransformation products ([6]; up to 24 h incubation): No phase I biotransformation products
- inhibition of human CYP enzymes (i.e., CYP3A4) [7]: inhibition
- epithelial barrier (membrane) integrity [8]: did not seem to disrupt
- recovery in the medium (without enteroids) [9]: 101 ± 3.2%

Compound: glycycoumarin-glucuronide [glycy-glucuronide]
- glucuronide concentration released at the apical side ([6]; after 4 h): ~3 µM
- glucuronide concentration released at the apical side ([6]; after 24 h): ~16 µM

From paper PMC11421016, “Biotransformation and Epithelial Toxicity of Prenylated Phenolics from Licorice Roots (Glycyrrhiza spp.) in 3D Apical-Out Mucus-Producing Human Enteroids” (Journal of Agricultural and Food Chemistry, 2024)
